Source: US20090233907A1, “Pyridopyrimidine Derivatives and Their Use as PDE4 Inhibitors” (ASTRAZENECA AB, priority 2006, published 2009)

molecular target: T1, recombinant Human Phosphodiesterase B2 (PDE4B2) (Homo sapiens, UniProt Q07343); test: Human Phosphodiesterase B2 Alpha Screen Assay; type: biochemical; conditions: Alpha Screen cAMP assay
Description: Human Phosphodiesterase B2 Alpha Screen Assay
The assay uses recombinant Human Phosphodiesterase B2 (PDE4B2) produced in house (PrAZL0133), stored at −20° C. The substrate uses cAMP, part of the Alpha Screen cAMP kit (Perkin Elmer, Cat# 6760625M), stored at 4° C. The Alpha Screen kit also includes biotinylated cAMP, acceptor and donor beads.
The assay additions were as follows: Test compounds and controls were added to white 384-well flat-bottom plates (Greiner, Cat# 781075), 0.2 μl in 100% DMSO, followed by 10 μl PDE4B2 in reaction buffer. The reaction buffer constitution was: 50 mM Tris (pH 7.5), 8.3 mM MgCl2, 1.7 mM EGTA and 0.01% (w/v) Brij®35. The enzyme and the compounds were incubated at room temperature for 15 minutes. Then 10 μl cAMP in reaction buffer was added. The assay was stopped after 60 minutes incubation at room temperature by adding 10 μl acceptor beads in detection buffer with 40 mM EDTA. The detection buffer constitution was: 5 mM Tris (pH 7.5), 0.1% (w/v) BSA and 0.1% (v/v) Tween 20. This addition followed by an addition of 10 μl donor beads in detection buffer, with biotinylated cAMP. The plates were then incubated, dark at room temperature, for 5 hours followed by measurement on a Fusion™-α analyser. IC50 values (presented in Table 4) were determined using Xlfit curve fitting using model 205.

T1 sequence (Q07343 1-564 isoform Q07343-2): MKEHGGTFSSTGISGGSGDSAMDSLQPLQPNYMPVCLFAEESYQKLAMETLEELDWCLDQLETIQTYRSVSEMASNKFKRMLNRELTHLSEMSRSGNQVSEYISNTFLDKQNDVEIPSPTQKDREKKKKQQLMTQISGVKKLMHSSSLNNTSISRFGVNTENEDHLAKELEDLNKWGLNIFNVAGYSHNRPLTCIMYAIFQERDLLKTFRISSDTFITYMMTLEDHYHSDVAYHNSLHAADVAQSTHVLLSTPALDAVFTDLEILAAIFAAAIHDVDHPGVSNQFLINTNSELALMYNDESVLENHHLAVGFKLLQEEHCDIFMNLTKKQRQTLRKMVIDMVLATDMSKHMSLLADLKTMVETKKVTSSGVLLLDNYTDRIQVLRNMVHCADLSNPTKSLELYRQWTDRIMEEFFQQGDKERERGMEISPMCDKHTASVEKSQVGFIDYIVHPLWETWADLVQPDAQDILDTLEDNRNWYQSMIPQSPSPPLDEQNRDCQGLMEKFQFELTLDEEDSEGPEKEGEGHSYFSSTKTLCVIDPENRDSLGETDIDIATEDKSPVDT

IC50	Compound
5.9 nM	O=C(N[C@H]1CC[C@@H](n2c(=O)c3cc(F)cnc3n(C3CCSCC3)c2=O)CC1)c1ncccc1O [Example 20, N-{cis-4-[6-fluoro-2,4-dioxo-1-(tetrahydro-2H-thiopyran-4-yl)-1,4-dihydropyrido[2,3-d]pyrimidin-3(2H)-yl]cyclohexyl}-3-hydroxypyridine-2-carboxamide]
2.72 nM	O=C(N[C@H]1CC[C@@H](n2c(=O)c3cc(F)cnc3n(C3CCSCC3)c2=O)CC1)c1ccccc1 [Example 23, N-{cis-4-[6-fluoro-2,4-dioxo-1-(tetrahydro-2H-thiopyran-4-yl)-1,4-dihydropyrido[2,3-d]pyrimidin-3(2H)-yl]cyclohexyl}benzamide]
2.76 nM	O=C(N[C@H]1CC[C@@H](n2c(=O)c3cc(F)cnc3n(C3CCSCC3)c2=O)CC1)c1ccco1 [Example 24, N-{cis-4-[6-fluoro-2,4-dioxo-1-(tetrahydro-2H-thiopyran-4-yl)-1,4-dihydropyrido[2,3-d]pyrimidin-3(2H)-yl]cyclohexyl}-2-furamide]

The next lines start with the compound.

Compound	IC50
CC(C)CC(=O)N[C@H]1CC[C@@H](n2c(=O)c3cc(F)cnc3n(C3CCSCC3)c2=O)CC1 [Example 21, N-{cis-4-[6-fluoro-2,4-dioxo-1-(tetrahydro-2H-thiopyran-4-yl)-1,4-dihydropyrido[2,3-d]pyrimidin-3(2H)-yl]cyclohexyl}-3-methylbutanamide]	4.72 nM
O=C(N[C@H]1CC[C@@H](n2c(=O)c3cc(F)cnc3n(C3CCSCC3)c2=O)CC1)c1cccn2ccnc12 [Example 25, N-{cis-4-[6-fluoro-2,4-dioxo-1-(tetrahydro-2H-thiopyran-4-yl)-1,4-dihydropyrido[2,3-d]pyrimidin-3(2H)-yl]cyclohexyl}imidazo[1,2-a]pyridine-8-carboxamide]	5.59 nM
O=C(N[C@H]1CC[C@@H](n2c(=O)c3cc(F)cnc3n(C3CCSCC3)c2=O)CC1)c1cc(CO)ccc1O [Example 26, N-{cis-4-[6-fluoro-2,4-dioxo-1-(tetrahydro-2H-thiopyran-4-yl)-1,4-dihydropyrido[2,3-d]pyrimidin-3(2H)-yl]cyclohexyl}-2-hydroxy-5-(hydroxymethyl)benzamide]	4.31 nM

molecular target: T1, recombinant Human Phosphodiesterase B2 (PDE4B2); test: Human Phosphodiesterase B2 Radiometric Assay; type: biochemical; conditions: radiometric SPA assay, [3H]cyclic AMP 8 nM, read-out: PDE4B2 pIC50 (converted)
Description: Human Phosphodiesterase B2 Radiometric Assay
The assay uses recombinant Human Phosphodiesterase B2 (PDE4B2) produced in house (PrAZL0163), stored at −20° C. This assay is based on the observation that 5′AMP, the product of the reaction catalysed by PDE4, binds preferentially to yttrium silicate SPA beads (Amersham Biosciences, UK) compared to the substrate, cAMP. Compounds at the appropriate concentration were preincubated at 30 C for 30 min with an assay buffer containing 50 mM HEPES (pH 7.5), 8.3 mM MgCl2, 1.7 mM EGTA, 0.01% (w/v) Brij®35 and 0.1 μg/mL recombinant PDE4B2. The reaction was started by the addition of [3H]cyclic AMP to give a final concentration of 8 nM, and was stopped 20 minutes after the addition of the substrate by the addition of yttrium silicate SPA beads containing 18 mM Zn SO4. Bound [3H]cyclic AMP was measured using a Topcount NXT (Packard Bioscience, UK). pIC50 values (presented in Table 5) were determined using Xlfit3 curve fitting, using model 205.

IC50	Compound
0.398 nM	O=C(N[C@H]1CC[C@@H](n2c(=O)c3cc(F)cnc3n(C3CCSCC3)c2=O)CC1)c1cn2c(n1)CCCC2 [Example 33, N-{cis-4-[6-fluoro-2,4-dioxo-1-(tetrahydro-2H-thiopyran-4-yl)-1,4-dihydropyrido[2,3-d]pyrimidin-3(2H)-yl]cyclohexyl}-5,6,7,8-tetrahydroimidazo[1,2-a]pyridine-2-carboxamide]
0.126 nM	O=C(N[C@H]1CC[C@@H](n2c(=O)c3cc(F)cnc3n(C3CCSCC3)c2=O)CC1)c1cn2cc(F)ccc2n1 [Example 41, 6-fluoro-N-{cis-4-[6-fluoro-2,4-dioxo-1-(tetrahydro-2H-thiopyran-4-yl)-1,4-dihydropyrido[2,3-d]pyrimidin-3(2H)-yl]cyclohexyl}imidazo[1,2-a]pyridine-2-carboxamide]
0.316 nM	O=C(N[C@H]1CC[C@@H](n2c(=O)c3cc(F)cnc3n(C3CCSCC3)c2=O)CC1)C(O)c1ccc(O)cc1 (stereo partly drawn) [Example 64b, N-{cis-4-[6-fluoro-2,4-dioxo-1-(tetrahydro-2H-thiopyran-4-yl)-1,4-dihydropyrido[2,3-d]pyrimidin-3(2H)-yl]cyclohexyl}-2-hydroxy-2-(4-hydroxyphenyl)acetamide]
0.501 nM	CN(C)c1ccc(C(=O)NC2CCC(n3c(=O)c4cc(F)cnc4n(C4CCSCC4)c3=O)CC2)cc1 (stereo not shown) [Example 67, 4-dimethylamino-N-[4-(9-fluoro-2,4-dioxo-5-tetrahydrothiopyran-4-yl-3,5,7-triazabicyclo[4.4.0]deca-6,8,10-trien-3-yl)cyclohexyl]benzamide]
